Molecules are shown by their SMILES. Where two headings read alike, the source gives them in different places.

The experiment concerns PAF-induced rabbit platelet aggregation. Briefly: PAF-induced rabbit platelet aggregation. The settings on record: Oryctolagus cuniculus, read-out: IC50, inhibition of PAF-induced rabbit platelet aggregation. It counts as cell-based, rabbit (New Zealand white). The protocol:
Pharmacology Example 1: PAF-induced rabbit platelet aggregation
Blood was collected from the ear artery of a male New Zealand white rabbit and mixed with 3.8% sodium citrate in a 9:1 volume ratio. Platelet rich plasma (PRP) was obtained by centrifugation of the blood at 150 g for 10 min at room temperature. The number of platelets was adjusted to 3×10^8 platelets/ml with platelet poor plasma. Platelet aggregation was monitored by continuous recording of light transmission in a dual-channel aggregometer (Chrono-Log 560-VS) coupled with a two channel recorder (Chrono-Log 707). Stirred PRP was treated with various concentrations of the test compounds or vehicle (0.5% DMSO) for 2 min and then PAF(5×10^-9 M) was added to induce platelet aggregation.
Inhibition values were calculated by comparing the extent of aggregation obtained in the presence of the vehicle alone (0.5% DMSO) and in the presence of a test compound. Log concentration-response curves were generated and the IC50 values were determined by regression analysis.
Table 1 lists results from this assay for inhibition of PAF-induced rabbit platelet aggregation for illustrative examples of the compounds of this invention.

With `CC1C(=O)OC2C(O)C34C5CC(C(C)(C)C)C36C(OC(=O)C6OCc3ccccc3)OC4(C(=O)O5)C12O` (stereo not shown) [Example 1, 10-benzyloxy-Ginkgolide B], the IC50 (rabbit PRP, PAF 5×10^-9 M) was 68.8 nM.

Consider `CC1C(=O)OC2C(O)C34C5CC(C(C)(C)C)C36C(OC(=O)C6OCc3ccc(Cl)cc3Cl)OC4(C(=O)O5)C12O` (stereo not shown) [Example 2, 10-(2',4'-dichlorobenzyloxy)-Ginkgolide B], for which the IC50 (rabbit PRP, PAF 5×10^-9 M) was 72.1 nM. As to `CC1C(=O)OC2C(O)C34C5CC(C(C)(C)C)C36C(OC(=O)C6OCc3ccc(Cl)cc3)OC4(C(=O)O5)C12O` (stereo not shown) [Example 3, 10-(4'-chlorobenzyloxy)-Ginkgolide B], the half-inhibitory concentration (IC50) (rabbit PRP, PAF 5×10^-9 M) is 94.7 nM.

As to `CC1C(=O)OC2C(O)C34C5CC(C(C)(C)C)C36C(OC(=O)C6OCc3ccc(I)cc3)OC4(C(=O)O5)C12O` (stereo not shown) [Example 5], the IC50 was 50.1 nM. For the compound `CC1C(=O)OC2C(O)C34C5CC(C(C)(C)C)C36C(OC(=O)C6OCc3ccc(Cl)c(Cl)c3)OC4(C(=O)O5)C12O` (stereo not shown) [Example 11], the IC50 (rabbit PRP, PAF 5×10^-9 M) is 101 nM. On to `COc1ccc(COC2C(=O)OC3OC45C(=O)OC6CC(C(C)(C)C)C32C64C(O)C2OC(=O)C(C)C25O)cc1` (stereo not shown) [Example 14, 10-(4'-methoxybenzyloxy)-Ginkgolide B], for which the IC50 (rabbit PRP, PAF 5×10^-9 M) was determined as 85.8 nM.

For the compound `COc1cc(COC2C(=O)OC3OC45C(=O)OC6CC(C(C)(C)C)C32C64C(O)C2OC(=O)C(C)C25O)cc(OC)c1OC` (stereo not shown) [Example 15, 10-(3',4',5'-trimethoxybenzyloxy)-Ginkgolide B], for the setting “rabbit PRP, PAF 5×10^-9 M”, the concentration for half-maximal inhibition (IC50) was 62.1 nM. Consider `CC1C(=O)OC2C(O)C34C5CC(C(C)(C)C)C36C(OC(=O)C6OCc3ccc(OC(F)(F)F)cc3)OC4(C(=O)O5)C12O` (stereo not shown) [Example 24], for which the half-inhibitory concentration (IC50) amounted to 42.1 nM. For the compound `CC1C(=O)OC2C(O)C34C5CC(C(C)(C)C)C36C(OC(=O)C6OCc3ccc(O)cc3)OC4(C(=O)O5)C12O` (stereo not shown) [Example 25], under “rabbit PRP, PAF 5×10^-9 M”, the IC50 stood at 57.1 nM. The same measure, in the same setting: with `Cc1cc(COC2C(=O)OC3OC45C(=O)OC6CC(C(C)(C)C)C32C64C(O)C2OC(=O)C(C)C25O)cc(C)c1O` (stereo not shown) [Example 27] the figure was 62.1 nM; with `COc1cc(COC2C(=O)OC3OC45C(=O)OC6CC(C(C)(C)C)C32C64C(O)C2OC(=O)C(C)C25O)ccc1O` (stereo not shown) [Example 28], 37.1 nM. With `CC1C(=O)OC2C(O)C34C5CC(C(C)(C)C)C36C(OC(=O)C6OCc3ccc(O)c(O)c3)OC4(C(=O)O5)C12O` (stereo not shown) [Example 30], the IC50 came out at 121 nM.

In the case of `CC1C(=O)OC2C(O)C34C5CC(C(C)(C)C)C36C(OC(=O)C6OCc3cc(C(C)(C)C)c(O)c(C(C)(C)C)c3)OC4(C(=O)O5)C12O` (stereo not shown) [Example 31], the IC50 (rabbit PRP, PAF 5×10^-9 M) worked out at 78.1 nM. On to `COc1cc(COC2C(=O)OC3OC45C(=O)OC6CC(C(C)(C)C)C32C64C(O)C2OC(=O)C(C)C25O)cc(OC)c1O` (stereo not shown) [Example 32], for which, where the note is “rabbit PRP, PAF 5×10^-9 M”, the IC50 amounted to 65.1 nM. Still for that read-out and setting: with `Cc1cc(COC2C(=O)OC3OC45C(=O)OC6CC(C(C)(C)C)C32C64C(O)C2OC(=O)C(C)C25O)cc(N)c1O` (stereo not shown) [Example 35] the figure was 101 nM. For the compound `Cc1ccccc1COC1C(=O)OC2OC34C(=O)OC5CC(C(C)(C)C)C21C53C(O)C1OC(=O)C(C)C14O` (stereo not shown) [Example 41, 10-(2'-methylbenzyloxy)-Ginkgolide B], the IC50 (rabbit PRP, PAF 5×10^-9 M) stood at 74.1 nM. The same measure, in the same setting: next, `Cc1ccccc1COC1C(=O)OC2OC34C(=O)OC5CC(C(C)(C)C)C21C53C(OCc1ccccc1C)C1OC(=O)C(C)C14O` (stereo not shown) [Example 42, 1,10-bis(2'-methylbenzyloxy)-Ginkgolide B]: 44.3 nM; `Cc1ccc(COC2C(=O)OC3OC45C(=O)OC6CC(C(C)(C)C)C32C64C(O)C2OC(=O)C(C)C25O)cc1` (stereo not shown) [Example 43, 10-(4'-methylbenzyloxy)-Ginkgolide B]: 46.7 nM. As to `CC1C(=O)OC2C(O)C34C5CC(C(C)(C)C)C36C(OC(=O)C6OCc3ccc([N+](=O)[O-])cc3)OC4(C(=O)O5)C12O` (stereo not shown) [Example 44], the half-inhibitory concentration (IC50) amounted to 83.1 nM. Still for that read-out and setting: with `CC1C(=O)OC2C(O)C34C5CC(C(C)(C)C)C36C(OC(=O)C6OCc3cccc([N+](=O)[O-])c3)OC4(C(=O)O5)C12O` (stereo not shown) [Example 63] the figure was 62.7 nM; with `CC1C(=O)OC2C(O)C34C5CC(C(C)(C)C)C36C(OC(=O)C6OCc3ccc(N)cc3)OC4(C(=O)O5)C12O` (stereo not shown) [Example 75], 116 nM. Turning to `CC1C(=O)OC2C(O)C34C5CC(C(C)(C)C)C36C(OC(=O)C6OCCCOc3ccccc3)OC4(C(=O)O5)C12O` (stereo not shown) [Example 78, 10-(3'-phenoxypropoxy)-Ginkgolide B], the IC50 (rabbit PRP, PAF 5×10^-9 M) was 159 nM. On to `CC1C(=O)OC2C(O)C34C5CC(C(C)(C)C)C36C(OC(=O)C6OCCc3ccccc3)OC4(C(=O)O5)C12O` (stereo not shown) [Example 79, 10-(2'-phenylethoxy)-Ginkgolide B], for which the IC50 (rabbit PRP, PAF 5×10^-9 M) turned out to be 117 nM. Same read-out and setting: with `COc1cc(C(=O)OC2C(=O)OC3OC45C(=O)OC6CC(C(C)(C)C)C32C64C(O)C2OC(=O)C(C)C25O)cc(OC)c1OC` (stereo not shown) [Example 80, 10-(3',4'.5'-trimethoxybenzoyloxy)-Ginkgolide B] the figure was 114 nM. In the case of `CC1C(=O)OC2C(O)C34C5CC(C(C)(C)C)C36C(OC(=O)C6OCc3ccc(-c6ccccc6)cc3)OC4(C(=O)O5)C12O` (stereo not shown) [Example 81, 10-(4'-phenylbenzyloxy)-Ginkgolide B], the IC50 (rabbit PRP, PAF 5×10^-9 M) is 52.1 nM. `CC1C(=O)OC2C(O)C34C5CC(C(C)(C)C)C36C(OC(=O)C6OCc3c(F)c(F)c(F)c(F)c3F)OC4(C(=O)O5)C12O` (stereo not shown) [Example 83, 10-(2',3',4',5',6'-pentafluorobenzyloxy)-Ginkgolide B]: the IC50 came out at 71.7 nM. Regarding `CC1C(=O)OC2C(O)C34C5CC(C(C)(C)C)C36C(OC(=O)C6OCc3cccc(F)c3)OC4(C(=O)O5)C12O` (stereo not shown) [Example 84, 10-(3'-fluorobenzyloxy)-Ginkgolide B], the IC50 (rabbit PRP, PAF 5×10^-9 M) is 68 nM. Regarding `CC1C(=O)OC2C(O)C34C5CC(C(C)(C)C)C36C(OC(=O)C6OCc3ccc(F)cc3)OC4(C(=O)O5)C12O` (stereo not shown) [Example 85, 10-(4'-fluorobenzyloxy)-Ginkgolide B], for the setting “rabbit PRP, PAF 5×10^-9 M”, the IC50 was found to be 32.1 nM. Consider `CC1C(=O)OC2C(O)C34C5CC(C(C)(C)C)C36C(OC(=O)C6OCc3ccc(F)cc3F)OC4(C(=O)O5)C12O` (stereo not shown) [Example 86, 10-(2',4'-difluorobenzyloxy)-Ginkgolide B], for which the IC50 is 50.1 nM. Turning to `CC1C(=O)OC2C(O)C34C5CC(C(C)(C)C)C36C(OC(=O)C6OCc3ccccc3F)OC4(C(=O)O5)C12O` (stereo not shown) [Example 87, 10-(2'-fluorobenzyloxy)-Ginkgolide B], the IC50 turned out to be 107 nM. Turning to `CC1C(=O)OC2C(O)C34C5CC(C(C)(C)C)C36C(OC(=O)C6OC(=O)c3ccccc3)OC4(C(=O)O5)C12O` (stereo not shown) [Example 88, 10-benzoyloxy-Ginkgolide B], the IC50 worked out at 48.2 nM. Regarding `CC1C(=O)OC2C(OC(=O)c3ccccc3)C34C5CC(C(C)(C)C)C36C(OC(=O)C6O)OC4(C(=O)O5)C12O` (stereo not shown) [Example 89, 1-benzoyloxy-Ginkgolide B], under “rabbit PRP, PAF 5×10^-9 M”, the IC50 amounted to 62.1 nM. In the case of `CC1C(=O)OC2C(O)C34C5CC(C(C)(C)C)C36C(OC(=O)C6OS(=O)(=O)c3ccccc3)OC4(C(=O)O5)C12O` (stereo not shown) [Example 90, 10-benzenesulfonyloxy-Ginkgolide B], the IC50 (rabbit PRP, PAF 5×10^-9 M) was found to be 82.1 nM. Same read-out and setting: next, `COc1cccc(COC2C(=O)OC3OC45C(=O)OC6CC(C(C)(C)C)C32C64C(O)C2OC(=O)C(C)C25O)c1` (stereo not shown) [Example 91, 10-(3'-methoxybenzyloxy)-Ginkgolide B]: 93.1 nM; `CC1C(=O)OC2C(OCc3ccc(Cl)cc3Cl)C34C5CC(C(C)(C)C)C36C(OC(=O)C6OCc3ccc(Cl)cc3Cl)OC4(C(=O)O5)C12O` (stereo not shown) [Example 92, 1,10-bis(2',4'-dichlorobenzyloxy)-Ginkgolide B]: 102 nM. The same measure, in the same setting: next, `CC1C(=O)OC2C(O)C34C5CC(C(C)(C)C)C36C(OC(=O)C6OCc3cccc(C(F)(F)F)c3)OC4(C(=O)O5)C12O` (stereo not shown) [Example 93, 10-(3'-trifiuoromethylbenzyloxy)-Ginkgolide B]: 73.1 nM; `CC1C(=O)OC2C(O)C34C5CC(C(C)(C)C)C36C(OC(=O)C6OCc3ccc(C(F)(F)F)cc3)OC4(C(=O)O5)C12O` (stereo not shown) [Example 94, 10-(4'-trifluoromethylbenzyloxy)-Ginkgolide B]: 121 nM; `CC1C(=O)OC2C(OCc3ccc(C(F)(F)F)cc3)C34C5CC(C(C)(C)C)C36C(OC(=O)C6OCc3ccc(C(F)(F)F)cc3)OC4(C(=O)O5)C12O` (stereo not shown) [Example 95]: 87.1 nM. Same read-out and setting: with `Cc1cnc(COC2C(=O)OC3OC45C(=O)OC6CC(C(C)(C)C)C32C64C(O)C2OC(=O)C(C)C25O)c(C)c1[N+](=O)[O-]` (stereo not shown) [Example 98, 10-(3,5-dimethyl-4-nitro-2-pyridinyl)-methoxy-Ginkgolide B] the figure was 131 nM; with `CCCCc1ccc(COC2C(=O)OC3OC45C(=O)OC6CC(C(C)(C)C)C32C64C(O)C2OC(=O)C(C)C25O)nc1` (stereo not shown) [Example 100, 10-(5-butyl-2-pyridinyl)-methoxy-Ginkgolide B], 52.1 nM.

On to `CC1C(=O)OC2C(O)C34C5CC(C(C)(C)C)C36C(OC(=O)C6OCCc3ccccn3)OC4(C(=O)O5)C12O` (stereo not shown) [Example 101, 10-(2-pyridinyl)-ethoxy-Ginkgolide B], for which the IC50 was determined as 102 nM. In the case of `CC1C(=O)OC2C(O)C34C5CC(C(C)(C)C)C36C(OC(=O)C6OCc3ccc6ccccc6n3)OC4(C(=O)O5)C12O` (stereo not shown) [Example 102, 10-(2-quinolinyl)-methoxy-Ginkgolide B], the IC50 (rabbit PRP, PAF 5×10^-9 M) was determined as 131 nM.

As to `Cc1cnc(COC2C(=O)OC3OC45C(=O)OC6CC(C(C)(C)C)C32C64C(O)C2OC(=O)C(C)C25O)c(C)c1NO` (stereo not shown) [Example 104, 10-(3,5-dimethyl-4-hydroxyamino-2-pyridinyl)-methoxy-Ginkgolide B], under “rabbit PRP, PAF 5×10^-9 M”, the IC50 was 110 nM.
